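Where inhibition never reached the appropriate level, the endpoint shown equals the highest concentration tested. Otherwise, values were interpolated linearly from a five-concentration, 48-hour dose response in 96-well plates. GI50 = concentration required for 50% inhibition of growth.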 Active and inactive are the calls of the source. Rule as the data show it: active = GI50 up to about 1.1 µM and inactive = higher.
How the values were obtained:
Test in all cases: NCI anticancer screen, dose series, 48 h
DMS-273 = test system: DMS-273
OVCAR-4 = test system: OVCAR-4
COLO 205 = test system: COLO 205
SK-MEL-5 = test system: SK-MEL-5
RXF 393 = test system: RXF 393
UACC-257 = test system: UACC-257
HCC 2998 = test system: HCC 2998
SK-MEL-2 = test system: SK-MEL-2
U-251 = test system: U-251
DMS-114 = test system: DMS-114
HOP-62 = test system: HOP-62
HCT-116 = test system: HCT-116
MCF7 = test system: MCF7
SK-MEL-28 = test system: SK-MEL-28
K562 = test system: K562
SF-295 = test system: SF-295
M19-MEL = test system: M19-MEL
Malme-3M = test system: Malme-3M
A498 = test system: A498
NCI-H23 = test system: NCI-H23
SNB-19 = test system: SNB-19
NCI-H460 = test system: NCI-H460
LOX IMVI = test system: LOX IMVI
KM-20L2 = test system: KM-20L2
HCT-15 = test system: HCT-15
KM12 = test system: KM12
SNB-75 = test system: SNB-75
HOP-18 = test system: HOP-18
UO-31 = test system: UO-31
DLD-1 = test system: DLD-1
OVCAR-8 = test system: OVCAR-8
SN12C = test system: SN12C
NCI/ADR-RES = test system: NCI/ADR-RES
SK-OV-3 = test system: SK-OV-3
SF-539 = test system: SF-539
OVCAR-3 = test system: OVCAR-3
HL-60 = test system: HL-60
XF498 = test system: XF498
OVCAR-5 = test system: OVCAR-5
MOLT-4 = test system: MOLT-4
HT-29 = test system: HT-29
CCRF-CEM = test system: CCRF-CEM
SNB-78 = test system: SNB-78
NCI-H226 = test system: NCI-H226
IGROV-1 = test system: IGROV-1
SF-268 = test system: SF-268
UACC-62 = test system: UACC-62
RPMI-8226 = test system: RPMI-8226
SW-620 = test system: SW-620
A549 = test system: A549
HOP-92 = test system: HOP-92
CAKI-1 = test system: CAKI-1
NCI-H522 = test system: NCI-H522
EKVX = test system: EKVX

CCOCCOc1ccc(OCCOCC)cc1
GI50 (DMS-273): 21.6 µM (inactive) | GI50 (OVCAR-4): 6.04 µM (inactive) | GI50 (COLO 205): 15.9 µM (inactive) | GI50 (SK-MEL-5): 22.4 µM (inactive) | GI50 (RXF 393): 18.1 µM (inactive) | GI50 (UACC-257): 17.5 µM (inactive) | GI50 (HCC 2998): 37.3 µM (inactive) | GI50 (SK-MEL-2): > 43 µM (inactive) | GI50 (U-251): 34 µM (inactive) | GI50 (DMS-114): 4.51 µM (inactive) | GI50 (HOP-62): > 100 µM (inactive) | GI50 (HCT-116): 17.2 µM (inactive) | GI50 (MCF7): 14 µM (inactive) | GI50 (SK-MEL-28): 20.3 µM (inactive) | GI50 (K562): 7.91 µM (inactive) | GI50 (SF-295): 25.4 µM (inactive) | GI50 (M19-MEL): 26 µM (inactive) | GI50 (Malme-3M): 13.4 µM (inactive) | GI50 (A498): 36.3 µM (inactive) | GI50 (NCI-H23): 29.9 µM (inactive) | GI50 (SNB-19): > 100 µM (inactive) | GI50 (NCI-H460): 29.5 µM (inactive) | GI50 (LOX IMVI): 17.9 µM (inactive) | GI50 (KM-20L2): 26.2 µM (inactive) | GI50 (HCT-15): 16.9 µM | GI50 (KM12): 31.5 µM (inactive) | GI50 (SNB-75): 18.8 µM (inactive) | GI50 (HOP-18): 10.7 µM (inactive) | GI50 (UO-31): 13.6 µM (inactive) | GI50 (DLD-1): 10.1 µM (inactive) | GI50 (OVCAR-8): 16.6 µM (inactive) | GI50 (SN12C): 16.8 µM (inactive) | GI50 (NCI/ADR-RES): 16.4 µM (inactive) | GI50 (SK-OV-3): > 81.8 µM (inactive) | GI50 (SF-539): > 10 µM (inactive) | GI50 (OVCAR-3): 30.1 µM (inactive) | GI50 (HL-60): 3.4 µM (inactive) | GI50 (XF498): 16.4 µM (inactive) | GI50 (OVCAR-5): > 100 µM (inactive) | GI50 (MOLT-4): 7.71 µM (inactive) | GI50 (HT-29): 16.9 µM (inactive) | GI50 (CCRF-CEM): 2.74 µM (inactive) | GI50 (SNB-78): > 42.7 µM (inactive) | GI50 (NCI-H226): 31.9 µM (inactive) | GI50 (IGROV-1): 20 µM (inactive) | GI50 (SF-268): 17 µM (inactive) | GI50 (UACC-62): 19 µM (inactive) | GI50 (RPMI-8226): 3.51 µM (inactive) | GI50 (SW-620): 19.2 µM (inactive) | GI50 (A549): 37.6 µM (inactive)

CSCC(CO)NC(=O)/C=C/c1c(C)[nH]c(=O)[nH]c1=O (centres undefined)
GI50 (DMS-273): > 838 µM (inactive) | GI50 (OVCAR-4): 31.9 µM (inactive) | GI50 (COLO 205): 68.5 µM (inactive) | GI50 (HOP-92): 318 µM (inactive) | GI50 (SK-MEL-5): > 820 µM (inactive) | GI50 (RXF 393): > 875 µM (inactive) | GI50 (UACC-257): 820 µM (inactive) | GI50 (HCC 2998): 85.1 µM (inactive) | GI50 (SK-MEL-2): 597 µM (inactive) | GI50 (U-251): 462 µM (inactive) | GI50 (DMS-114): 164 µM (inactive) | GI50 (HOP-62): 596 µM (inactive) | GI50 (HCT-116): 507 µM (inactive) | GI50 (MCF7): 40.3 µM (inactive) | GI50 (SK-MEL-28): > 875 µM (inactive) | GI50 (K562): 117 µM (inactive) | GI50 (SF-295): > 875 µM (inactive) | GI50 (CAKI-1): 91.8 µM (inactive) | GI50 (M19-MEL): 478 µM (inactive) | GI50 (Malme-3M): 307 µM (inactive) | GI50 (A498): > 875 µM (inactive) | GI50 (NCI-H23): 690 µM (inactive) | GI50 (SNB-19): 791 µM (inactive) | GI50 (NCI-H460): 671 µM (inactive) | GI50 (LOX IMVI): 457 µM (inactive) | GI50 (KM-20L2): 415 µM (inactive) | GI50 (NCI-H522): 45.8 µM (inactive) | GI50 (HCT-15): 485 µM | GI50 (KM12): 695 µM (inactive) | GI50 (SNB-75): 444 µM (inactive) | GI50 (HOP-18): > 875 µM (inactive) | GI50 (UO-31): 557 µM (inactive) | GI50 (DLD-1): 512 µM (inactive) | GI50 (OVCAR-8): 228 µM (inactive) | GI50 (SN12C): 367 µM (inactive) | GI50 (NCI/ADR-RES): 621 µM (inactive) | GI50 (SK-OV-3): 641 µM (inactive) | GI50 (SF-539): > 875 µM (inactive) | GI50 (OVCAR-3): 53.1 µM (inactive) | GI50 (HL-60): 197 µM (inactive) | GI50 (XF498): 311 µM (inactive) | GI50 (EKVX): 454 µM (inactive) | GI50 (OVCAR-5): 352 µM (inactive) | GI50 (MOLT-4): 232 µM (inactive) | GI50 (HT-29): > 826 µM (inactive) | GI50 (CCRF-CEM): 153 µM (inactive) | GI50 (SNB-78): > 853 µM (inactive) | GI50 (NCI-H226): 752 µM (inactive) | GI50 (IGROV-1): > 875 µM (inactive) | GI50 (SF-268): 223 µM (inactive) | GI50 (UACC-62): > 800 µM (inactive) | GI50 (RPMI-8226): 661 µM (inactive) | GI50 (SW-620): 366 µM (inactive) | GI50 (A549): > 875 µM (inactive)
